SMILES strings stand for the structures. Structures can show the parent of a compound that is named as a salt. Where two headings read alike, the source gives them in different places.

Consider eleven compounds from patent US11666594B2, “Antibody-drug conjugates comprising a cyclic dinucleotide” (TAKEDA PHARMACEUTICAL COMPANY LIMITED, priority 2016, dated 2023).

In one data set the test system is B16F10 mouse tumor cells. Briefly: Anti-tumor effect in B16F10 syngeneic mice model. To be noted: B16F10, C57BL/6 mice; intravenous, q3dx3; Ex3a 30 mg/kg, Ex14 1.0 mg/kg. The format is in vivo. The procedure:
(§1) 8×10^4 B^16F10 and 2×10^5 CT-26 mouse tumor cells were subcutaneously implanted in the flank of female C57BL/6 (B16F10) and Balb/C (CT-26) mice (n=7 per group). Vehicle (1×PBS), compound Ex3a (30 mg/kg) or Ex14 (1.0 mg/kg) were intravenously administered (final volume of […]) to tumor-bearing mice once the tumor volume has reached 100 mm^3 (Day 0). Vehicle, Ex3a or Ex14 were given every 3 days for a total of 3 doses (q3dx3). Tumor and body weight measurements were taken three times per week using vernier calipers and mettler scale, respectively. Tumor volumes were determined by multiplying the square of the width (‘W’), measured along the […] of the tumor, by one-half the length (‘L’) measured along the […] of the tumor (V=W^2×0.5 L)

Data set [1] is described as follows: Human plasma stability assay. The format is in vitro ADME. The following applies: elimination rate constant k; heparinized human plasma, 37° C., up to 24 hours. The procedure:
The compound was incubated in heparinized human plasma at 37° C. for 0, 1, 2, 4, 8 and 24 hours, and the change in compound concentration was measured by LC/MS/MS method. The elimination rate constant (=k(/h)) was calculated based on the fitted curve assuming the exponential decrease of concentration as follows; concentration at time x=initial concentration*exp(−k*x).

A further data set deals with WT STING (Homo sapiens (Human), UniProt Q86WV6, H232R). Briefly: Reporter gene assay (2): ISRE NanoLuc reporter in 293T cells, with digitonin, WT STING. The following applies: for EC50: with digitonin, read-out: STING-293T cell EC50 (μM) Reporter with digitonin (B); for activation at 30 µM: HEK-293T, read-out: activity level against WT STING of test compound (30 μM). It is filed as cell-based. How it is done: The culture solution was removed, and the test compound diluted with assay buffer (50 mM HEPES pH 7.0, 100 mM KCl, 3 mM MgCl2, 85 mM Sucrose, 0.1 mM DTT, 0.2% BSA, 1 mM ATP, 0.1 mM GTP, 10 μg/ml Digitonin) was added thereto by 15 μL/well. […] Luminescence signals derived from firefly luciferase and NanoLuc Luciferase were each measured using EnVision (PerkinElmer, Waltham, Mass., US) according to Nano-Glo Dual-Luciferase Reporter Assay System (Promega, Fitchburg, Wis., US) protocol. The ratio of the count of NanoLuc Luciferase divided by the count of firefly luciferase was used for culculation.

Another data set concerns CT-26 mouse tumor cells. Briefly: Anti-tumor effect in colon carcinoma CT-26 syngeneic mice model. The format is in vivo. The following applies: CT-26, Balb/C mice; intravenous, q3dx3; Ex3a 30 mg/kg, Ex14 1.0 mg/kg. How it is done: as §1
For a further data set, the system named is THP1-Dual cells. The data set is described as follows: THP-1 Dual Lucia reporter gene assay. To be noted: 20 hours; read-out: THP-1 Dual cell EC50 (μM) Reporter. The format is cell-based, human. The procedure:
THP1-Dual™ cells (InvivoGen #thpd-nfis) were derived from the human THP-1 monocyte cell line by stable integration of the Lucia luciferase gene, a secreted luciferase reporter gene, under the control of an ISG54 (interferon-stimulated gene) minimal promoter in conjunction with five interferon (IFN)-stimulated response elements. On the day of experiment, the cells were plated to a black, 384-well plate (Corning 356697) at 7500 cells/25 μL per well density in growth media (RPMI 1640, 2 mM L-glutamine, 25 mM HEPES, 10% heat-inactivated fetal bovine serum, 100 μg/mL Normocin™, 100 U/mL-100 μg/mL Pen-Strep, 10 μg/mL of blasticidin, and 100 μg/mL of Zeocin). The cell plates were dosed with 62.5 nL of the testing compounds, and then incubated at 37° C. for 20 hours. At the end of the incubation, 15 μL/well of the QUANTI-Luc™ (InvivoGen #rep-qlc1) were added, and luminescence was measured immediately using the LeadSeeker.

Setting [2] is: 30 μM, digitonin, 2′,3′-cGAMP (30 μM) = 100%.

WT STING, sequence (Q86WV6 whole entry H232R): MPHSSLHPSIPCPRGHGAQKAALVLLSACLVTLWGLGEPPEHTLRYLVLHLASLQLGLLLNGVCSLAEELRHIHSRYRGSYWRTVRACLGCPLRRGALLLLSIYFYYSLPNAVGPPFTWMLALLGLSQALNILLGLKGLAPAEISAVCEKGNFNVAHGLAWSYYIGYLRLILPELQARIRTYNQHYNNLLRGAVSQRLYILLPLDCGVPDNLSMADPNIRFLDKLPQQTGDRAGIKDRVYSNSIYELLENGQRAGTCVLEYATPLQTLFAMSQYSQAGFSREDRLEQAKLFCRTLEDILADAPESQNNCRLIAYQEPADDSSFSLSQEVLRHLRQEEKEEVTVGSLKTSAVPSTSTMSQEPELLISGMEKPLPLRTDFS

Turning to `Nc1ncnc2c1ncn2[C@@H]1O[C@@H]2COP(=O)(O)O[C@@H]3[C@H](O)[C@@H](COP(=O)(S)O[C@H]2[C@H]1F)O[C@H]3n1cc(F)c2c(=O)[nH]cnc21` (stereo partly drawn) [Ex3a, disodium (5R,7R,8R,2aR,14R,15R,5aR,16R)-14-(6-amino-9H-purin-9-yl)-15-fluoro-7-(5-fluoro-4-oxo-3,4-dihydro-7H-pyrrolo[2,3-d]pyrimidin-7-yl)-16-hydroxy-2-sulfidooctahydro-12H-5,8-methanofuro[3,2-1][1,3,6,9,11,2,10]pentaoxadiphosphacyclotetradecin-10-olate 2,10-dioxide], the anti-tumor effect result in the data set on B16F10 mouse tumor cells and with CT-26 mouse tumor cells was “anti-tumor effects were observed” throughout. In addition, in data set [1], the “Human plasma stability” value was 0.58 h⁻¹. For the same compound, the EC50 – broadly, the concentration giving half of the maximal effect – on WT STING came to 0.13 µM; in the data set on THP1-Dual cells it was 5.6 µM. On to `Nc1ncnc2c1ncn2[C@@H]1O[C@@H]2COP(=O)(O)O[C@@H]3[C@H](O)[C@@H](COP(=O)(O)O[C@H]2[C@H]1F)O[C@H]3n1cc(F)c2c(=O)[nH]cnc21` [Example 1, 7-((5R,7R,8R,12aR,14R,15R,15aR,16R)-14-(6-amino-9H-purin-9-yl)-15-fluoro-2,10,16-trihydroxy-2,10-dioxidooctahydro-12H-5,8-methanofuro[3,2-1][1,3,6,9,11,2,10]pentaoxadiphosphacyclotetradecin-7-yl)-5-fluoro-3,7-dihydro-4H-pyrrolo[2,3-d]pyrimidin-4-one di-triethylamine salt], for which, on WT STING (setting [2]), the activation at 30 µM is 97%. Still for that read-out and setting: the same measure for `Nc1ncnc2c1ncn2[C@@H]1O[C@@H]2COP(=O)(O)O[C@@H]3[C@H](O)[C@@H](COP(=O)(O)O[C@H]2[C@H]1F)O[C@H]3n1cc(F)c2c(=O)[nH]cnc21` [Example 1a, 7-((5R,7R,8R,12aR,14R,15R,15aR,16R)-14-(6-amino-9H-purin-9-yl)-15-fluoro-2,10,16-trihydroxy-2,10-dioxidooctahydro-12H-5,8-methanofuro[3,2-1][1,3,6,9,11,2,10]pentaoxadiphosphacyclotetradecin-7-yl)-5-fluoro-3,7-dihydro-4H-pyrrolo[2,3-d]pyrimidin-4-one disodium salt]: 99%; for `Nc1ncnc2c1ncn2[C@@H]1O[C@@H]2COP(=O)(O)O[C@@H]3[C@H](O)[C@@H](COP(=O)(S)O[C@H]2[C@H]1F)O[C@H]3n1cc(F)c2c(=O)[nH]cnc21` (stereo partly drawn) [Example 3, 7-((2R,5R,7R,8R,12aR,14R,15R,15aR,16R)-14-(6-amino-9H-purin-9-yl)-15-fluoro-10,16-dihydroxy-2,10-dioxido-2-sulfanyloctahydro-12H-5,8-methanofuro[3,2-1][1,3,6,9,11,2,10]pentaoxadiphosphacyclotetradecin-7-yl)-5-fluoro-3,7-dihydro-4H-pyrrolo[2,3-d]pyrimidin-4-one 1.7 triethylamine salt]: 97%. In the case of `Nc1ncnc2c1ncn2[C@@H]1O[C@@H]2COP(=O)(S)O[C@@H]3[C@H](O)[C@@H](COP(=O)(S)O[C@H]2[C@H]1O)O[C@H]3n1cc(F)c2c(=O)[nH]cnc21` (stereo partly drawn) [Example 5, 7-((5R,7R,8R,12aR,14R,15R,15aS,16R)-14-(6-amino-9H-purin-9-yl)-15,16-dihydroxy-2,10-dioxido-2,10-disulfanyloctahydro-12H-5,8-methanofuro[3,2-1][1,3,6,9,11,2,10]pentaoxadiphosphacyclotetradecin-7-yl)-5-fluoro-3,7-dihydro-4H-pyrrolo[2,3-d]pyrimidin-4-one di-triethylamine salt (Optical Isomer)], in data set [1], the “Human plasma stability” value is <0.01 h⁻¹. The activation at 30 µM on WT STING (setting [2]) was 102%. For the same compound, on WT STING, the EC50 was found to be 0.19 µM. For `Nc1nc2c(ncn2[C@@H]2O[C@@H]3COP(=O)(O)O[C@H]4[C@@H](O)[C@H](c5cnn6c(N)ncnc56)O[C@@H]4COP(=O)(O)O[C@@H]2[C@@H]3O)c(=O)[nH]1` [Example 13, 2-amino-9-((5R,7R,8R,12aR,14S,15S,15aS,16R)-14-(4-aminopyrazolo[1,5-a][1,3,5]triazin-8-yl)-2,10,15,16-tetrahydroxy-2,10-dioxidooctahydro-12H-5,8-methanofuro[3,2-1][1,3,6,9,11,2,10]pentaoxadiphosphacyclotetradecin-7-yl)-1,9-dihydro-6H-purin-6-one di-triethylamine salt], the activation at 30 µM at WT STING worked out at 99%.

On to `Nc1ncnc2c1ncn2[C@@H]1O[C@@H]2COP(=O)(S)O[C@@H]3[C@H](O)[C@@H](COP(=O)(S)O[C@H]2[C@H]1F)O[C@H]3n1cc(F)c2c(=O)[nH]cnc21` (stereo partly drawn) [Example 14, 7-((2R,5R,7R,8R,10R,12aR,14R,15R,15aR,16R)-14-(6-amino-9H-purin-9-yl)-15-fluoro-16-hydroxy-2,10-dioxido-2,10-disulfanyloctahydro-12H-5,8-methanofuro[3,2-1][1,3,6,9,11,2,10]pentaoxadiphosphacyclotetradecin-7-yl)-5-fluoro-3,7-dihydro-4H-pyrrolo[2,3-d]pyrimidin-4-one disodium salt], for which the anti-tumor effect entry in the data set with B16F10 mouse tumor cells and in the data set on CT-26 mouse tumor cells was “anti-tumor effects were observed” in each case. For the same compound, in data set [1], the “Human plasma stability” value was <0.01 h⁻¹. On WT STING, the EC50 was 0.13 µM. `Nc1ncnc2c1ncn2[C@@H]1O[C@@]23CO[C@@H]1[C@@H]2OP(=O)(O)OC[C@H]1O[C@@H](n2cc(F)c4c(=O)[nH]cnc42)[C@H](OP(=O)(O)OC3)[C@@H]1O` [Example 16, 7-((5R,7R,8R,12aR,14R,15R,15aS,18R)-14-(6-amino-9H-purin-9-yl)-2,10,18-trihydroxy-2,10-dioxidohexahydro-14H-15,12a-(epoxymethano)-5,8-methanofuro[3,2-1][1,3,6,9,11,2,10]pentaoxadiphosphacyclotetradecin-7(12H)-yl)-5-fluoro-3,7-dihydro-4H-pyrrolo[2,3-d]pyrimidin-4-one di-triethylamine salt]: at WT STING (setting [2]), the activation at 30 µM was 114%.

With `Nc1ncnc2c1ncn2[C@@H]1O[C@@]23CO[C@@H]1[C@@H]2OP(=O)(S)OC[C@H]1O[C@@H](n2cc(F)c4c(=O)[nH]cnc42)[C@H](OP(=O)(O)OC3)[C@@H]1O` (stereo partly drawn) [Example 17, 7-((5R,7R,8R,12aR,14R,15R,15aS,18R)-14-(6-amino-9H-purin-9-yl)-10,18-dihydroxy-2,10-dioxido-2-sulfanylhexahydro-14H-15,12a-(epoxymethano)-5,8-methanofuro[3,2-1][1,3,6,9,11,2,10]pentaoxadiphosphacyclotetradecin-7(12H)-yl)-5-fluoro-3,7-dihydro-4H-pyrrolo[2,3-d]pyrimidin-4-one di-trimethylamine salt], on WT STING, the activation at 30 µM came out at 110%. The same measure, in the same setting: the same measure for `Nc1nc2c(ncn2[C@@H]2O[C@@H]3COP(=O)(O)O[C@@H]4[C@H](O)[C@@H](COP(=O)(O)O[C@H]3[C@H]2F)O[C@H]4n2cc(F)c3c(=O)[nH]cnc32)c(=O)[nH]1` [Example 19, 2-amino-9-((5R,7R,8R,12aR,14R,15R,15aR,16R)-15-fluoro-7-(5-fluoro-4-oxo-3,4-dihydro-7H-pyrrolo[2,3-d]pyrimidin-7-yl)-2,10,16-trihydroxy-2,10-dioxidooctahydro-12H-5,8-methanofuro[3,2-1][1,3,6,9,11,2,10]pentaoxadiphosphacyclotetradecin-14-yl)-1,9-dihydro-6H-purin-6-one di-triethylamine salt]: 101%.

`Nc1nc2c(ncn2[C@@H]2O[C@@H]3COP(=O)(O)O[C@H]4[C@@H](O)[C@H](n5cnc6c(N)ncnc65)O[C@@H]4COP(=O)(O)O[C@@H]2[C@@H]3O)c(=O)[nH]1` [cGAMP, 2′,3′-cGAMP, reference compound]: the “Human plasma stability” value in data set [1] was 1.39 h⁻¹.
